Reference: patent US6124328A, “Methods and compositions for stimulating neurite growth” (Vertex Pharmaceuticals Incorporated, priority 1997, dated 2000)

These compounds were tested against FKBP12 (Homo sapiens, UniProt P62942) (assay: FKBP12 Binding Assay: inhibition of FKBP rotomase activity (cis-N-succinyl-Ala-Ala-Pro-Phe-p-nitroanilide / chymotrypsin), apparent Ki). Settings: Table 2, formula II', compound 0.1 nM-10 μM.
Format: biochemical
Source text: Preferably, the assay measures inhibition of FKBP12 rotomase activity. Such an assay has also been described by M. W. Harding et al., supra and by J. J. Siekierka et al., supra. In this assay the isomerization of an artificial substrate--N-succinyl-Ala-Ala-Pro-Phe-p-nitroanilide--is followed spectrophotometrically. The assay includes the cis form of the substrate, FKBP12, the inhibitor and chymotrypsin. Chymotrypsin is able to cleave p-nitroanilide from the trans form of the substrate, but not the cis form. Release of p-nitroanilide is measured.
In this assay various quantities of FKBP12 binding compound (0.1 nM-10 μM) were added to cis-N-succinyl-Ala-Ala-Pro-Phe-p-nitroanilide in the presence of FKBP12 and chymotrypsin. FKBP12 converts the cis form of the substrate to the trans form. This allows chymotrypsin to cleave p-nitroanilide from the substrate. Release of p-nitroanilide was measured spectrophotometrically.

Chain of FKBP12 (P62942 whole entry): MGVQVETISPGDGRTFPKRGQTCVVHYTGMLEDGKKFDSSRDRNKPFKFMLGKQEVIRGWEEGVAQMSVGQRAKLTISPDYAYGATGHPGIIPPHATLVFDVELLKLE

SMILES	Ki [nM]
C=CCOc1cc(C(=O)C(=O)N2CCCC[C@H]2C(=O)OC(CCCc2ccccc2)c2cccc(C(=O)c3ccncc3)c2)ccc1OC (some centres unmarked) [compound 97]	17
C=CCOc1c(OC)cc(C(=O)C(=O)N2CCCC[C@H]2C(=O)OC(CCCc2ccccc2)c2cccc(C(=O)c3ccncc3)c2)cc1OC (some centres unmarked) [compound 95]	3.6
COc1cc(C(=O)C(=O)N2CCCC[C@H]2C(=O)OC(CCCc2ccccc2)c2cccc(C(=O)c3ccncc3)c2)cc(OC)c1OCc1ccccc1 (some centres unmarked) [compound 94]	25
COc1cc(C(=O)C(=O)N2CCCC[C@H]2C(=O)OC(CCCc2cccnc2)CCCc2cccnc2)cc(OC)c1OC [compound 106]	3.7
COc1cc(C(=O)C(=O)N2CCCC[C@H]2C(=O)OC(CCCc2ccccc2)CCCc2ccc(C(=O)N3CCN(C)CC3)cc2)cc(OC)c1OC (some centres unmarked) [compound 57]	5.6
COc1cc(C(=O)C(=O)N2CCCC[C@H]2C(=O)OC(CCCc2ccccc2)c2ccc(OCc3ccncc3)c(OCc3ccncc3)c2OCc2ccncc2)cc(OC)c1OC (some centres unmarked) [compound 67]	46
COc1cc(C(=O)C(=O)N2CCCC[C@H]2C(=O)OC(CCCc2ccccc2)c2cc(OCc3ccncc3)c(OCc3ccncc3)c(OCc3ccncc3)c2)cc(OC)c1OC (some centres unmarked) [compound 70]	5
COc1cc(C(=O)C(=O)N2CCCC[C@H]2C(=O)OC(CCCc2ccccc2)c2cccc(CO)c2)cc(OC)c1OC (some centres unmarked) [compound 37]	6.8
COc1cc(C(=O)C(=O)N2CCC[C@H]2C(=O)OC(COCc2ccccc2)COCc2ccccc2)cc(OC)c1OC [compound 107]	75000
COc1cc(C(=O)C(=O)N2CCCC[C@H]2C(=O)OC(CCCc2ccccc2)c2cccc(C(=O)c3cccnc3)c2)cc(OC)c1OC (some centres unmarked) [compound 91]	24
COc1cc(C(=O)C(=O)N2CCCC[C@H]2C(=O)OC(CCCc2ccccc2)CCC(C)c2ccccc2)cc(OC)c1OC (some centres unmarked) [compound 32]	20
COc1ccc(C(=O)C(=O)N2CCCC[C@H]2C(=O)OC(CCCc2ccccc2)c2cccc(C(=O)c3ccncc3)c2)cc1OCc1ccccc1 (some centres unmarked) [compound 96]	25
COc1cc(C(=O)C(=O)N2CCCC[C@H]2C(=O)OC(CCCc2ccccc2)CCCc2ccc(C(=O)NCc3ccccc3)cc2)cc(OC)c1OC (some centres unmarked) [compound 54]	1.6
COc1ccc(C(=O)C(=O)N2CCCC[C@H]2C(=O)OC(CCCc2ccccc2)c2cccc(C(=O)c3ccncc3)c2)cc1C/C=C/c1ccccc1 (some centres unmarked) [compound 98]	380
COc1cc(C(=O)C(=O)N2CCCC[C@H]2C(=O)OC(c2cccnc2)c2cccc(OCc3ccncc3)c2)cc(OC)c1OC (some centres unmarked) [compound 63]	13
COc1cc(C(=O)C(=O)N2CCCC[C@H]2C(=O)OC(C)c2cc(OCc3ccccc3)cc(OCc3ccccc3)c2)cc(OC)c1OC (some centres unmarked) [compound 49]	3400

Second part, the compound after the results:

Ki [nM]	SMILES
0.39	COc1cc(C(=O)C(=O)N2CCCC[C@H]2C(=O)OC(c2cc(OCc3ccncc3)c(OCc3ccncc3)c(OCc3ccncc3)c2)C(C)C)cc(OC)c1OC (some centres unmarked) [compound 115]
5	CCCC(OC(=O)[C@@H]1CCCCN1C(=O)C(=O)c1cc(OC)c(OC)c(OC)c1)c1cc(OCc2ccncc2)c(OCc2ccncc2)c(OCc2ccncc2)c1 (some centres unmarked) [compound 81]
73	C=CC(OC(=O)[C@@H]1CCCCN1C(=O)C(=O)c1cc(OC)c(OC)c(OC)c1)c1cc(OCc2ccncc2)c(OCc2ccncc2)c(OCc2ccncc2)c1 (some centres unmarked) [compound 78]
12	CCC(OC(=O)[C@@H]1CCCCN1C(=O)C(=O)c1cc(OC)c(OC)c(OC)c1)c1cc(OCc2ccncc2)c(OCc2ccncc2)c(OCc2ccncc2)c1 (some centres unmarked) [compound 75]
13	COc1cc(C(=O)C(=O)N2CCCC[C@H]2C(=O)OC(c2cc(OCc3ccncc3)c(OCc3ccncc3)c(OCc3ccncc3)c2)C(C)C)cc(OC)c1OC (some centres unmarked) [compound 116]
3.5	COc1cc(C(=O)C(=O)N2CCCC[C@H]2C(=O)OC(C)c2ccc(OCc3ccncc3)c(OCc3ccncc3)c2OC(C)C)cc(OC)c1OC (some centres unmarked) [compound 85]
17	CCCC(OC(=O)[C@@H]1CCCCN1C(=O)C(=O)c1cc(OC)c(OC)c(OC)c1)c1cc(OCc2ccncc2)c(OCc2ccncc2)c(OCc2ccncc2)c1 (some centres unmarked) [compound 80]
